Measured values as given in article PMC4376459, “CXCR3 antagonist VUF10085 binds to an intrahelical site distinct from that of the broad spectrum antagonist TAK-779” (British Journal of Pharmacology, 2015).

Target: T1, CXCR3 Y308A (Homo sapiens, UniProt P49682, Y308A)
T1 construct: expressed in transfected cells; host or cells: murine pre-B cell line L1.2, transient transfection
T1 sequence (P49682 1-368 Y308A): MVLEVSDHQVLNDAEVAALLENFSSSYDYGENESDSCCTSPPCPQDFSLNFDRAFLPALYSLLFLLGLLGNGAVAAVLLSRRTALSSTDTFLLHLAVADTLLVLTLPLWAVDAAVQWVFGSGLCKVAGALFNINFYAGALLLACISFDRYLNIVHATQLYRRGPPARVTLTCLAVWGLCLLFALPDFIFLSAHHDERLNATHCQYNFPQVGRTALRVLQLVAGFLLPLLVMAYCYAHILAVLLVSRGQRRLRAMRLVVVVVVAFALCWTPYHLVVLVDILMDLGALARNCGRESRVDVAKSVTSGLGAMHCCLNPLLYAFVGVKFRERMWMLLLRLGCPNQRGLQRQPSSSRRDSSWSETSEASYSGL
Assay: Whole-cell 125I-CXCL11 binding assay, L1.2 transfectants

- reduction in IC50 value, ligand binding (Y308A relative to WT): twofold
- IC50 (Y308A, 0.1 nM 125I-CXCL11, read-out: IC50 ligand binding (mean ± SEM)): 14.2 ± 3 µM
SMILES: Cc1ccc(-c2ccc3c(c2)C=C(C(=O)Nc2ccc(C[N+](C)(C)C4CCOCC4)cc2)CCC3)cc1.[Cl-] [TAK-779, N,N-dimethyl-N-[4-[[[2-(4-methylphenyl)-6,7-dihydro-5H-benzocyclohepten-8-yl]-carbonyl]amino]benzyl] tetrahydro-2H-pyran-4-aminium chloride]
